This passage reports IC50 results from patent US20140018347A1, “BENZOXAZEPINES AS INHIBITORS OF mTOR AND METHODS OF THEIR USE AND MANUFACTURE” (Exelixis, Inc., priority 2010, published 2014).

Molecules are shown by their SMILES.

Experiment [1] deals with PI3Kalpha (Homo sapiens, UniProt P42336). The experiment can be described thus: PI3K Biochemical Assays (PI3K-alpha assay). As to conditions: ATP consumption, luciferase-luciferin; 1 μM ATP, 10 μM PIP2. An outline of the steps:
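Recombinant PI3Kα 3 nM, ATP 1 μM and PIP2 10 μM in Tris pH 7.5 with 10 mM MgCl2, ~2 h at ambient temperature. ATP depletion (held to 40-60%) was read by Kinase-Glo luminescence for IC50. Other isoforms: β 10 nM, δ 4 nM; γ 40 nM, 1 h, 5 mM MgCl2.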

Experiment [2] has as its target mTORC1 (Homo sapiens, UniProt P42345). The experiment can be described thus: mTOR/GbL/Raptor (mTORC1) ELISA Assay. In kind it is biochemical. As to conditions: phosphorylation of 4E-BP1; 0.2 nM mTORC1, 10 μM ATP. Summed up:
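Kinase reaction: 0.2 nM mTORC1, 10 μM ATP, 50 nM NHis-4E-BP1 in Hepes pH 7.2 with 10 mM MnCl2, 120 min at ambient temperature. Phospho-4E-BP1 was captured on Ni-chelate plates and detected by anti-phospho-4E-BP1 rabbit IgG, HRP secondary and chemiluminescence.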

Chain of PI3Kalpha (P42336 whole entry, canonical isoform): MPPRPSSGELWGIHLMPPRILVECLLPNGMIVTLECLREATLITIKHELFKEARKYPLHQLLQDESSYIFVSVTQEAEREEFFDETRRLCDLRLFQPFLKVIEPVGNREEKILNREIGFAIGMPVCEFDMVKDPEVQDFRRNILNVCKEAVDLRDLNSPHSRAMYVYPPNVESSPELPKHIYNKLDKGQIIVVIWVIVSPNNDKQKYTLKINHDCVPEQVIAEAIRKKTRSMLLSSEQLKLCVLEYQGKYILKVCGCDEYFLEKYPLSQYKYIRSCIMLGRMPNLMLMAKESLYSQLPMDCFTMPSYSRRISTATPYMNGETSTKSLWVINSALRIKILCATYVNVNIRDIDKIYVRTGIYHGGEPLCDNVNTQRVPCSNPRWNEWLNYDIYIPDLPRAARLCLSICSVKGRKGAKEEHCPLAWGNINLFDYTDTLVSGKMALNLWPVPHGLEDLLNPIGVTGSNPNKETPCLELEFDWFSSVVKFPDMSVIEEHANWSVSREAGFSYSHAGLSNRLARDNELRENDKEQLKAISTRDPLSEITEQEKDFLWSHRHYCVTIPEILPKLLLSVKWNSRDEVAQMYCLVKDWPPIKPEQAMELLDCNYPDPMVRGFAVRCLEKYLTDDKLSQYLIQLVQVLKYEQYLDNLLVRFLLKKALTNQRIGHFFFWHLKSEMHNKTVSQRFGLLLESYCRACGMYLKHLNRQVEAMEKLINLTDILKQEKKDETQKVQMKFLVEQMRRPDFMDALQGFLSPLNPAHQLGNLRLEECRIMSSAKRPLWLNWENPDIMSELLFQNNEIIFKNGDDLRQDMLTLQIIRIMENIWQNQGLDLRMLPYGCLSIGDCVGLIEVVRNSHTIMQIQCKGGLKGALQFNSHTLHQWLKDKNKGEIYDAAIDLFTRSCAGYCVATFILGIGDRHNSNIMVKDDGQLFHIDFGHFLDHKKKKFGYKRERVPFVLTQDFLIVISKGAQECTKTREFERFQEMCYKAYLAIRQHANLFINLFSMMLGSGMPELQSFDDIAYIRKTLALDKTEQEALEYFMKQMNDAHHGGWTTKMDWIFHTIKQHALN
Chain of PI3Kalpha (P27986 whole entry partner, canonical isoform): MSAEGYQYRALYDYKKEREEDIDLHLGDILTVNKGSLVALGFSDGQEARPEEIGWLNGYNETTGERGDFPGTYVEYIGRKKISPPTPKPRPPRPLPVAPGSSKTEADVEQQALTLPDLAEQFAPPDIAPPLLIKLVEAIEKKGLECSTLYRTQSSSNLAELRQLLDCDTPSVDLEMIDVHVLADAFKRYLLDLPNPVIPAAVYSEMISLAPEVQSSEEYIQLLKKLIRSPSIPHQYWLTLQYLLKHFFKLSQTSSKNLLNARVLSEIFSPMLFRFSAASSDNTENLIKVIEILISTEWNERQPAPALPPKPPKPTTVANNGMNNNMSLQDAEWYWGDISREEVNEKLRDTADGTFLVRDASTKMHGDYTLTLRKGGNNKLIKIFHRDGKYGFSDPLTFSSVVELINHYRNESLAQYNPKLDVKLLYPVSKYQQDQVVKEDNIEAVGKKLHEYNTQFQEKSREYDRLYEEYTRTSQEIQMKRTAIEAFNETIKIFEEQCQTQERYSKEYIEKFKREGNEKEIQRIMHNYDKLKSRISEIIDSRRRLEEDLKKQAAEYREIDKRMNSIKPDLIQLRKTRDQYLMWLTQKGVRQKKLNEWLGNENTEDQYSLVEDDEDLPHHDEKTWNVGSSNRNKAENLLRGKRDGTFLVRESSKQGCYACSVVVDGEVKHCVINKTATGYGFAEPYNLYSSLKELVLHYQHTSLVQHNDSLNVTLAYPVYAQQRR

In the case of `Cc1nc(CN(C)C)nc(N2CCOc3ccc(-c4cnc5sc(N)nc5c4)cc3C2)c1CC(=O)O` [Compound 18, {4-[7-(2-amino[1,3]thiazolo[5,4-b]pyridin-6-yl)-2,3-dihydro-1,4-benzoxazepin-4(5H)-yl]-2-[(dimethylamino)methyl]-6-methylpyrimidin-5-yl}acetic acid], the IC50 was 100 to 500 nM in experiment [1] and 500 to 2500 nM in experiment [2].

For the compound `Nc1nc(Cl)cc(N2CCOc3ccc(-c4cnc5sc(N)nc5c4)cc3C2)n1` [Compound 16, 6-[4-(2-amino-6-chloropyrimidin-4-yl)-2,3,4,5-tetrahydro-1,4-benzoxazepin-7-yl][1,3]thiazolo[5,4-b]pyridin-2-amine], the IC50 in experiment [1] and in experiment [2] was 100 to 500 nM each time.

As to `CC1(C)CCc2nc(N)nc(N3CCOc4ccc(-c5cnc6sc(N)nc6c5)cc4C3)c2C1` [Compound 61, 4-[7-(2-amino[1,3]thiazolo[5,4-b]pyridin-6-yl)-2,3-dihydro-1,4-benzoxazepin-4(5H)-yl]-6,6-dimethyl-5,6,7,8-tetrahydroquinazolin-2-amine], the IC50 in experiment [1] and in experiment [2] was not above 100 nM each time.

In the case of `Cc1nc(N)nc(N2CCOc3ccc(-c4cnc5sc(N)nc5c4)cc3C2)c1C` [Compound 5, 6-[4-(2-amino-5,6-dimethylpyrimidin-4-yl)-2,3,4,5-tetrahydro-1,4-benzoxazepin-7-yl][1,3]thiazolo[5,4-b]pyridin-2-amine], the IC50 was not above 100 nM in experiment [1] and 100 to 500 nM in experiment [2].

For the compound `CCCc1c(Cl)nc(N)nc1N1CCOc2ccc(-c3cnc4sc(N)nc4c3)cc2C1` [Compound 9, 6-[4-(2-amino-6-chloro-5-propylpyrimidin-4-yl)-2,3,4,5-tetrahydro-1,4-benzoxazepin-7-yl][1,3]thiazolo[5,4-b]pyridin-2-amine], the IC50 in experiment [1] and in experiment [2] was not above 100 nM throughout.

As for `Cc1nc(CN(C)C)nc(N2CCOc3ccc(-c4cnc5sc(N)nc5c4)cc3C2)c1Cl` [Compound 65, 6-(4-{5-chloro-2-[(dimethylamino)methyl]-6 methylpyrimidin-4-yl}-2,3,4,5-tetrahydro-1,4-benzoxazepin-7-yl)[1,3]thiazolo[5,4-b]pyridin-2-amine], the figures for the IC50 in experiment [1] and in experiment [2] were not above 100 nM and 100 to 500 nM, respectively.

Regarding `Cc1nc(CNCCF)nc(N2CCOc3ccc(-c4cnc5sc(N)nc5c4)cc3C2)c1C(C)C` [Compound 82, 6-{4-[2-{[(2-fluoroethyl)amino]methyl}-6-methyl-5-(1-methylethyl)pyrimidin-4-yl]-2,3,4,5-tetrahydro-1,4-benzoxazepin-7-yl}[1,3]thiazolo[5,4-b]pyridin-2-amine], the IC50 in experiment [1] and in experiment [2] was not above 100 nM each time.

Consider `CC(C)c1cnc(N)nc1N1CCOc2ccc(-c3cnc4sc(N)nc4c3)cc2C1` [Compound 95, 6-{4-[2-amino-5-(1-methylethyl)pyrimidin-4-yl]-2,3,4,5-tetrahydro-1,4-benzoxazepin-7-yl}[1,3]thiazolo[5,4-b]pyridin-2-amine], for which the IC50 in experiment [1] and in experiment [2] was not above 100 nM throughout.

As for `N#Cc1cnc(N2CCOc3ccc(-c4cnc5sc(N)nc5c4)cc3C2)nc1N` [Compound 49, 4-amino-2-[7-(2-amino[1,3]thiazolo[5,4-b]pyridin-6-yl)-2,3-dihydro-1,4-benzoxazepin-4(5H)-yl]pyrimidine-5-carbonitrile], the IC50 in experiment [1] was not above 100 nM; in experiment [2], 100 to 500 nM.

As to `Cc1nc(CN(C)C)nc(N2CCOc3ccc(-c4cnc5sc(N)nc5c4)cc3C2)c1CCCF` [Compound 38, 6-(4-{2-[(dimethylamino)methyl]-5-(3-fluoropropyl)-6-methylpyrimidin-4-yl}-2,3,4,5-telrahydro-1,4-benzoxazepin-7-yl)[1,3]thiazolo[5,4-b]pyridin-2-amine], the IC50 in experiment [1] and in experiment [2] was not above 100 nM each time.

On to `CCCc1c(C)nc(CN(C)C)nc1N1CCOc2ccc(-c3cnc4sc(N)nc4c3)cc2C1` [Compound 69, 6-(4-{2-[(dimethylamino)methyl]-6-methyl-5-propylpyrimidin-4-yl}-1,3,4,5-tetrahydro-1,4-benzoxazepin-7-yl)[1,3]thiazolo[5,4-b]pyridin-2-amine], for which the IC50 in experiment [1] and in experiment [2] was not above 100 nM throughout.

For the compound `Cc1nc(C#N)nc(N2CCOc3ccc(-c4cnc5sc(N)nc5c4)cc3C2)c1C(C)C` [Compound 25, 4-[7-(2-amino[1,3]thiazolo[5,4-b]pyridin-6-yl)-2,3-dihydro-1,4-benzoxazepin-4(5H)-yl)-6-methyl-5-(1-methylethyl)pyrimidine-2-carbonitrile], the IC50 was 100 to 500 nM in experiment [1] and not above 100 nM in experiment [2].

Consider `CCOC(=O)c1cnc(N)nc1N1CCOc2ccc(-c3cnc4sc(N)nc4c3)cc2C1` [Compound 48, ethyl 2-amino-4-[7-(2-amino[1,3]thiazolo[5,4-b]pyridin-6-yl)-2,3-dihydro-1,4-benzoxazepin-4(5H)-yl]pyrimidine-5-carboxylate], for which the IC50 in experiment [1] and in experiment [2] was 100 to 500 nM throughout.

Turning to `Nc1ncc(C(F)(F)F)c(N2CCOc3ccc(-c4cnc5sc(N)nc5c4)cc3C2)n1` [Compound 78, 6-{4-[2-amino-5-(trifluoromethyl)pyrimidin-4-yl]-2,3,4,5-tetrahydro-1,4-benzoxazepin-7-yl}[1,3]thiazolo[5,4-b]pyridin-2-amine], the IC50 in experiment [1] and in experiment [2] was not above 100 nM throughout.

Take `CCCc1c(C)nc(N)nc1N1CCOc2ccc(-c3cnc4sc(N)nc4c3)cc2C1` [Compound 32]: the half-maximal inhibitory concentration (IC50) in experiment [1] and in experiment [2] was not above 100 nM throughout.

Take `CC1(C)Cc2nc(N3CCOc4ccc(-c5cnc6sc(N)nc6c5)cc4C3)sc2C(=O)N1` [Compound 85, 2-[7-(2-amino[1,3]thiazolo[5,4-b]pyridin-6-yl)-23-dihydro-1,4-benzoxazepin-4(5H)-yl]-6,6-dimethyl-6,7-dihydro[1,3]thiazolo[5,4-c]pyridin-4(5H)-one]: the IC50 in experiment [1] is 100 to 500 nM; in experiment [2], not above 100 nM.

On to `CNc1nc(N)nc(N2CCOc3ccc(-c4cnc5sc(N)nc5c4)cc3C2)c1C` [Compound 63, 6-[7-(2-amino[1,3]thiazolo[5,4-b]pyridin-6-yl)-2,3-dihydro-1,4-benzoxazepin-4(5H)-yl]-N~4~,5-dimethylpyrimidine-2,4-diamine], for which the IC50 was not above 100 nM in experiment [1] and 100 to 500 nM in experiment [2].

Turning to `CC(=O)NCc1nc(C)c(C(C)C)c(N2CCOc3ccc(-c4cnc5sc(N)nc5c4)cc3C2)n1` [Compound 22, N-({4-[7-(2-amino[1,3]thiazolo[5,4-b]pyridin-6-yl)-2,3-dihydro-1,4-benzoxazepin-4(5H)-yl]-6-methyl-5-(1-methylethyl)pyrimidin-2-yl)methyl)acetamide], the IC50 in experiment [1] and in experiment [2] was not above 100 nM throughout.

For the compound `Cc1nc2c(c(N3CCOc4ccc(-c5cnc6sc(N)nc6c5)cc4C3)n1)CC(C)(C)CC2` [Compound 59, 6-[4-(2,6,6-trimethyl-5,6,7,8-tetrahydroquinazolin-4-yl)-2,3,4,5-tetrahydro-1,4-benzoxazepin-7-yl][1,3]thiazolo[5,4-b]pyridin-2-amine], the half-inhibitory concentration (IC50) in experiment [1] and in experiment [2] was not above 100 nM each time.

On to `Cc1nc(CN(C)C)nc(N2CCOc3ccc(-c4cnc5sc(N)nc5c4)cc3C2)c1-c1ccccc1` [Compound 37, 6-(4-{2-[(dimethylamino)methyl]-6-methyl-5-phenylpyrimidin-4-yl}-2,3,4,5-tetrahydro-1,4-benzoxazepin-7-yl)[1,3]thiazolo[5,4-b]pyridin-2-amine], for which the IC50 in experiment [1] and in experiment [2] was not above 100 nM throughout.

In the case of `C=Cc1c(N2CCOc3ccc(-c4cnc5sc(N)nc5c4)cc3C2)nc(N)nc1C(F)(F)F` [Compound 17, 6-{4-[2-amino-5-ethenyl-6-(trifluoromethyl)pyrimidin-4-yl]-2,3,4,5-tetrahydro-1,4-benzoxazepin-7-yl}[1,3]thiazolo[5,4-b]pyridin-2-amine], the IC50 in experiment [1] and in experiment [2] was not above 100 nM each time.

For the compound `CC1(C)CC(=O)c2sc(N3CCOc4ccc(-c5cnc6sc(N)nc6c5)cc4C3)nc2C1` [Compound 84, 2-[7-(2-amino[1,3]thiazolo[5,4-b]pyridin-6-yl)-2,3-dihydro-1,4-benzoxazepin-4(5H)-yl]-5,5-dimethyl-5,6-dihydro-1,3-benzothiazol-7(4H)-one], the IC50 was 500 to 2500 nM in experiment [1] and 100 to 500 nM in experiment [2].

In the case of `C=CCc1c(Cl)nc(N)nc1N1CCOc2ccc(-c3cnc4sc(N)nc4c3)cc2C1` [Compound 76, 6-[4-(2-amino-6-chloro-5-prop-2-en-1-ylpyrimidin-4-yl)-2,3,4,5-tetrahydro-1,4-benzoxazepin-7-yl][1,3]thiazolo[5,4-b]pyridin-2-amine], the IC50 in experiment [1] and in experiment [2] was not above 100 nM each time.

On to `Cc1c(N)nc(N)nc1N1CCOc2ccc(-c3cnc4sc(N)nc4c3)cc2C1` [Compound 73, 6-[7-(2-amino[1,3]thiazolo[5,4-b]pyridin-6-yl)-2,3-dihydro-1,4-benzoxazepin-4(5H)-yl]-5-methylpyrimidine-2,4-diamine], for which the values for the IC50 in experiment [1] and in experiment [2] were not above 100 nM and 100 to 500 nM, respectively.

As for `Cc1nc(C(N)=O)nc(N2CCOc3ccc(-c4cnc5sc(N)nc5c4)cc3C2)c1C(C)C` [Compound 20, 4-[7-(2-amino[1,3]thiazolo[5,4-b]pyridin-6-yl)-2,3-dihydro-1,4-benzoxazepin-4(5H)-yl]-6-methyl-5-(1-methylethyl)pyrimidine-2-carboxamide], the half-maximal inhibitory concentration (IC50) in experiment [1] and in experiment [2] was not above 100 nM throughout.
